According to patent US8242115B2, “Materials and methods to potentiate cancer treatment” (Luitpold Pharmaceuticals, Inc., priority 2000, dated 2012):
Like-named read-outs stand apart in the source and are kept apart here. Each block holds one molecule with its values, some of them ahead of it.

Tests used:
[1] = target: T1, human DNA-PK (Homo sapiens, UniProt P78527); test: Standard DNA-PK assay (p53 peptide phosphorylation); assay type: biochemical
T1 construct: The frozen HeLa cell pellet was thawed at 37° C. and immediately centrifuged; endogenous in cells; host or cells: HeLa S3 cells (ATCC CCL-2.2); Endogenous enzyme purified via S100-2 fraction, Q-Sepharose FF and SP-Sepharose FF (fraction IV)
Protocol: Reactions were carried out at room temperature. Reactions were started by addition of ATP and stopped by application to phosphocellulose paper. Reaction products spotted onto phosphocellulose paper were washed five times with a total volume of at least 250 mL 10% acetic acid or 150 mM phosphoric acid. The paper was air dried and radioactivity was determined in a Beckman LS6000IC scintillation counter.

[2] = test system: thymocytes from BALB/c and BALB/c p53-/p53- mice; HL60, Jurkat, JY, B16/F10, WS1; test: Cell viability, trypan blue exclusion assay; assay type: cell-based, human and mouse; details: up to 32 μM (thymocytes), up to 25 μM (cell lines), several days
Protocol: Cell viability was also tested during drug treatment using the trypan blue exclusion assay. […] Cultured cells were incubated in the presence of varying concentrations of 2-hydroxy-4-morpholin-4-yl-benzaldehyde up to 32 μM. Cultured human and mouse cell lines were incubated in RPMI 1640 media containing 10% FBS, 100 U/mL penicillin and 100 μg/mL streptomycin at 37° C. with 5% CO2 in a humidified incubator with 2-hydroxy-4-morpholin-4-yl-benzaldehyde for several days. Tumor cell lines, HL60, Jurkat, JY and B16/F10 and the normal cell line WS1 were tested using this assay when incubated at drug concentrations up to 25 μM.

[3] = test system: DR3 cells (cultured mouse B-lymphocytes); test: V(D)J recombination assay; assay type: cell-based; details: 50 μM
Protocol: Recombination assays were performed as previously described (Leu et al., Mol. Cell. Biol 15:5657-5670 (1995)). […] Cells were concentrated and washed in HBS (containing 30 mM HEPES-KOH, pH 7.5, 140 mM NaCl, and 5 mM KCl) and resuspended in HBS at a density of 2.0×10^8 cells/mL. Cells (1.0×10^7) were transiently transfected by electroporation with 10 μg of the recombination substrate pJH200 (Leu et al., Mol. Cell. Biol. 15:5657-5670 (1995)) and transferred to a 90 mm cell culture dish containing 8 mL media with or without 2-hydroxy-4-morpholin-4-yl-benzaldehyde as described above. After 2 days, cells were removed from the dish with a rubber policeman, concentrated, washed one time with PBS, and resuspended in 0.1 mL lysis buffer (0.3% Triton X-100, 50 mM Tris-HCl, pH 7.5, 50 mM EDTA). Following a five min incubation at room temperature, cellular debris was removed by centrifugation at 12,000 rpm for two min in a microfuge. The supernatant was extracted sequentially with phenol and chloroform/[…] (24:1), after which, one tenth volume 3 M sodium acetate and 2 volumes cold 100% ethanol were added to the aqueous phase. Precipitated nucleic acid was collected by centrifugation at 12,000 rpm for 15 min and suspended in 25 μL water. An aliquot of the material was used to transform DH5α cells by electroporation. […]

[4] = test system: HCT116 cells (human colon carcinoma) xenograft tumors; test: Animal tumor model, drug plus γ-radiation; assay type: in vivo, athymic BALB/c (nu/nu) mice; details: average tumor burden 500 mg; drug and 300 rad once daily for two days
Protocol: HCT116 cells (human colon carcinoma) were used to propagate xenograft tumors in 6-8 week old female athymic BALB/c (nu/nu) mice. Mice were maintained in a laminar airflow cabinet under pathogen-free conditions and fed sterile food and water ad libitum. HCT116 cells were grown to subconfluence in McCoy's media supplemented with 10% FBS, 100 U/mL penicillin, 100 μg/mL streptomycin, and 1.5 mM L-glutamine in a 5% CO2 humidified environment. Single cell suspensions were prepared in CMF-PBS (0.9 mM KCl, 2.7 mM KH2PO4, 13.8 mM NaCl, pH 7.5), and cell concentration adjusted to 4×10^7 cells/mL. Mice were inoculated subcutaneously (s.c.) on the right flank or right leg with a total of 4×10^6 cells (100 μL).
Mice were randomized (5 mice/group) into four treatment groups and used when tumors reached a weight of 75 to 100 mg (usually 7 to 11 days post-inoculation). Tumors were measured with vernier calipers and tumor weights were estimated using the empirically-derived formula below. Tumor weight(mg)=tumor length(mm)×tumor width(mm)^2/3.3. […] Tumor size was monitored every other day for the duration of the experiment.

[5] = Pharmacokinetic analysis after subcutaneous administration; assay type: in vivo, mice
[6] = test system: Colon carcinoma cells (HCT116)
[7] = test system: cultured human tumor cell lines (Table 4) and normal human fibroblast cell line MRC5; test: Cellular toxicity, MTS dye metabolism assay; details: 200 μM continuously for 48 h
[8] = test system: human colon carcinoma cell line HCT116; test: cells; assay type: cell-based; details: for GI50: Homo sapiens
Protocol: Cells plated at a density of 5,000 to 20,000 per well in 96-well microtiter plates were grown in RMPI 1640 containing 10% FBS, 100 U/mL penicillin and 100 μg/mL streptomycin, for 18 h at 37° C. in a humidified incubator with 5% CO2. Cells tested included ACHN, 786-0, HCT-116, SW620, SK-MEL-5, SK-MEL-28, A549, H322, OVCAR-3, SK-OV-3, MCF-7, MDA-MB-231, MOLT4, HL60, SNB-19, PC-3. Cells were treated with media containing chemotherapeutic drugs alone or with media containing chemotherapeutic drugs and a DNA-PK inhibitor of the invention, 1-(2-hydroxy-4-morpholin-4-yl-phenyl)-ethanone. Cells were incubated for two days before growth was measured using a tetrazolium dye assay (MTS). Chemotherapeutic drugs included bleomycin etoposide, vinblastine, doxorubicin, paclitaxel, cisplatin, chlorambucil, cyclophosphamide, 5-fluorouracil, cytosine-arabinoside, 6-mercaptoguanine and methotrexate (all purchased from Sigma). The drug concentration necessary to inhibit cell growth to 50% of untreated control cells was defined as the GI50.

[9] = read-out: IC50 (nM) DNA-PK Assay
[10] = with 1-(2-hydroxy-4-morpholin-4-yl-phenyl)-ethanone

Molecule: Nc1cc(NN2CCOCC2)ccc1[N+](=O)[O-] [Example 16, N^1-Morpholin-4-yl-4-nitrobenzene-1,3-diamine]
- IC50 [1, 9]: 1000 nM

Molecule: Nc1cc(N2CCNCC2)ccc1[N+](=O)[O-] [Example 20, 2-Nitro-5-piperazin-1-yl-phenylamine]
- IC50 [1, 9]: 10000 nM

Molecule: O=[N+]([O-])c1ccc(N2CCOCC2)cc1O [Example 33, 5-Morpholin-4-yl-2-nitro-phenol]
- IC50 [1, 9]: 2000 nM

Molecule: CC(=O)c1ccc(N2CCOCC2)c(Cl)c1O [Example 42 B, 1-(3-Chloro-2-hydroxy-4-morpholin-4-yl-phenyl)-ethanone]
- IC50 [1, 9]: 14000 nM

Molecule: CC(=O)c1cc(F)c(N2CCOCC2)cc1O [Example 43 C, 1-(5-Fluoro-2-hydroxy-4-morpholin-4-yl-phenyl)-ethanone]
- IC50 [1, 9]: 1500 nM

Molecule: CC(=O)c1ccc(N2CCOCC2)c(F)c1O [Example 43 D, 1-(3-Fluoro-2-hydroxy-4-morpholin-4-yl-phenyl)-ethanone]
- IC50 [1, 9]: 240 nM

Molecule: COc1cc(N2CCOCC2)ccc1C=O [Example 46 A, 2-Methoxy-4-morpholin-4-yl-benzaldehyde]
- IC50 [1, 9]: 10000 nM

Molecule: O/N=C/c1ccc(N2CCOCC2)cc1O [Example 48, 2-((Hydroxyimino)methyl)-5-morpholin-4-yl-phenol]
- IC50 [1, 9]: 1000 nM

Molecule: N/N=C/c1ccc(N2CCOCC2)cc1O [Example 49, 2-Hydrazonomethyl-5-morpholin-4-yl-phenol]
- IC50 [1, 9]: 1000 nM

Molecule: O=C(O)C(F)(F)F.O=C(O)c1ccc(CN2CCOCC2)cc1O [Example 52, 2-Hydroxy-4-morpholin-4-ylmethyl-benzoic Acid Trifluoroacetate]
- melting point: 138 to 146 °C

Molecule: O=C(O)CCCc1ccc(N(CCCl)CCCl)cc1 [chlorambucil]
- GI50 ([8]; HCT-116, read-out: GI50, chemotherapeutic drug alone): 120000 nM
- GI50 ([8]; HCT-116, read-out: GI50, in the presence of DNA-PK inhibitor): 14000 nM

Molecule: C[C@@]12c3ccc4c(c3C(=O)c3occ(c31)C(=O)C[C@H]2O)CCC4=O [demethoxyviridin, reference compound]
- IC50 ([1]; standard kinase reaction, read-out: IC50, enzyme activity inhibited): 5 nM

Molecule: COc1cc([C@@H]2c3cc4c(cc3[C@@H](O[C@@H]3O[C@@H]5CO[C@@H](C)O[C@H]5[C@H](O)[C@H]3O)[C@H]3COC(=O)[C@H]23)OCO4)cc(OC)c1O [etoposide, reference compound]
- GI50 ([8]; HCT-116, with 1-(2-hydroxy-4-morpholin-4-yl-phenyl)-ethanone, read-out: GI50, in the presence of DNA-PK inhibitor): 14000 nM
- GI50 ([8]; HCT-116, without DNA-PK inhibitor, read-out: GI50, chemotherapeutic drug alone): 120000 nM
- LD50 of etoposide without DNA-PK inhibitor ([6]; 24 h etoposide): 1.1 µM
- LD90 of etoposide without DNA-PK inhibitor ([6]; 24 h etoposide): 2.9 µM
- LD50 of etoposide with DNA-PK inhibitor [6, 10]: 0.075 µM
- LD90 of etoposide with DNA-PK inhibitor [6, 10]: 0.9 µM

Molecule: bleomycin
- GI50, in the presence of DNA-PK inhibitor ([8]; 100 μM 1-(2-hydroxy-4-morpholin-4-yl-phenyl)-ethanone): 3×10^−2 units/mL
- GI50, chemotherapeutic drug alone ([8]; without DNA-PK inhibitor): 2×10^−1 units/mL

The next lines start with results.

- IC50 [1, 9]: 500 nM
Molecule: O=C(O)c1ccc(N2CCOCC2)cc1O [Example 29, 2-Hydroxy-4-morpholin-4-yl-benzoic Acid]

- IC50 [1, 9]: 500 nM
Molecule: COC(=O)c1ccc(N2CCOCC2)cc1O [Example 30, 2-Hydroxy-4-morpholin-4-yl-benzoic Acid Methyl Ester]

- IC50 [1, 9]: 400 nM
- duration of high plasma concentration [5]: remained high for about one hour
Molecule: O=Cc1ccc(N2CCOCC2)cc1O [Example 32, 2-Hydroxy-4-morpholin-4-yl-benzaldehyde]
- cells sensitive to killing, trypan blue exclusion method [2]: In no instances were cells sensitive to killing
- DNA rearrangement (V(D)J recombination) inhibited [3]: 8 fold
- tumors shrank [4]: greater than 10 fold
- sensitivity of HCT116 to killing by γ-radiation ([6]; 200 μM): increased the sensitivity
- killing of cell lines, MTS dye metabolism assay [7]: no evidence of killing

- IC50 [1, 9]: 120 nM
Molecule: CCC(=O)c1ccc(N2CCOCC2)cc1O [Example 35, 1-(2-Hydroxy-4-morpholin-4-yl-phenyl)-propan-1-one]

- IC50 [1, 9]: 150 nM
Molecule: CC(C)CC(=O)c1ccc(N2CCOCC2)cc1O [Example 36, 1-(2-Hydroxy-4-morpholin-4-yl-phenyl)-3-methyl-butan-1-one]

- IC50 [1, 9]: 120 nM
Molecule: O=C(c1ccccc1)c1ccc(N2CCOCC2)cc1O [Example 37, 1-(2-Hydroxy-4-morpholin-4-yl-phenyl)-1-phenyl-methanone]

- IC50 [1, 9]: 250 nM
Molecule: O=C(c1ccc(N2CCOCC2)cc1O)C(F)(F)F [Example 38, 2,2,2-Trifluoro-1-(2-hydroxy-4-morpholin-4-yl-phenyl)-ethanone]

- IC50 [1, 9]: 40000 nM
Molecule: COC(=O)c1cc(N2CCOCC2)ccc1O [Example 47, 2-Hydroxy-5-morpholin-4-yl-benzoic Acid Methyl Ester]
